According to article PMC6934184, “Selective DNA-PKcs inhibition extends the therapeutic index of localized radiotherapy and chemotherapy” (The Journal of Clinical Investigation, 2019):

Molecular target: T1, TEK (Tie2) (Homo sapiens, UniProt Q02763)
T1 construct: purchased Thermo Fisher Scientific (Life Technologies) SelectScreen
Test: SelectScreen Z'LYTE
Type: biochemical
Procedure, shortened: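 Percent values come from Thermo SelectScreen profiling of NU5455, combining activity and binding assays. CSF1R was run in Z'LYTE format at Km app ATP, and CAMK1 in Adapta format with ATP listed at 10.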

T1 sequence (Q02763 23-1124): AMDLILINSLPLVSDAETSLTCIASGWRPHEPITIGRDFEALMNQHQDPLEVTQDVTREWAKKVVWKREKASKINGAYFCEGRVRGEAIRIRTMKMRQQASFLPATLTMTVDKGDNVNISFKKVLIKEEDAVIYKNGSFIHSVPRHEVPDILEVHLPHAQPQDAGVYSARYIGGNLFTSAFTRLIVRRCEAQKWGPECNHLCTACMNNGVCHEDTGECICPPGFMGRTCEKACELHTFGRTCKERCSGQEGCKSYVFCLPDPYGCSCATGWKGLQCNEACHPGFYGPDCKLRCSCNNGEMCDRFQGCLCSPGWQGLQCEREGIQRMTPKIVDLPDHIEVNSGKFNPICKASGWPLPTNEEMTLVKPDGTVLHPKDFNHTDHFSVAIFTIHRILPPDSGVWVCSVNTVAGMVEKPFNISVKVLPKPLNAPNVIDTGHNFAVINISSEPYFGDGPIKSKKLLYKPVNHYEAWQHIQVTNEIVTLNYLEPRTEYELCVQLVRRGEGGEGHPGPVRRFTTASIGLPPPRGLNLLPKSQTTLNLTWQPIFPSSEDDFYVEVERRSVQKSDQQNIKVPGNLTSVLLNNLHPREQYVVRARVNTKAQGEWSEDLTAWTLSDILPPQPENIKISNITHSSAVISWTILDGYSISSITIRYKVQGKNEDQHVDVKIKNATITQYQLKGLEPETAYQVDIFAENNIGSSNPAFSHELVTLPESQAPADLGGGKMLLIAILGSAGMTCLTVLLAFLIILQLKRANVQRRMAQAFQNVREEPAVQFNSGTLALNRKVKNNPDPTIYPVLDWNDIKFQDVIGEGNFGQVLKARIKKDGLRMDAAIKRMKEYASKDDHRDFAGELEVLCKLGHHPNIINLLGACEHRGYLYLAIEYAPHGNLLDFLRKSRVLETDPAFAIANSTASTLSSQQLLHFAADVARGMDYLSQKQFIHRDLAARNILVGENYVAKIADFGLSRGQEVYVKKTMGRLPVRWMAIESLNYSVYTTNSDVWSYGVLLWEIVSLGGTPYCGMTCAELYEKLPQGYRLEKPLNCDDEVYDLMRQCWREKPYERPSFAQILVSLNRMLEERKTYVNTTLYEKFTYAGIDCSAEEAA

## CN(C(=O)CN1CCOCC1)c1ccc2sc3c(-c4cccc5c(=O)cc(N6CC7CCC(C6)O7)oc45)cccc3c2c1 [NU5455]
  inhibition at 1 µM: -0.1%
